Data set [1] in a line: Selectivity index, ratio of CC50 for green monkey Vero-B cells to EC50 for Dengue virus infected in green monkey Vero-B cells. The settings on record: read-out: Ratio CC50/EC50. The format is toxicity, cell-based.
Data set [2] in a line: Selectivity index, ratio of CC50 for green monkey Vero-B cells to EC50 for Yellow fever virus infected in green monkey Vero-B cells. Format: toxicity, cell-based. As to conditions: read-out: Ratio CC50/EC50.

`Cc1ccc(NC(=O)c2nccnc2C(=O)Nc2ccccc2-c2cccnc2)cc1`: the selectivity ratio in data set [1] was determined as 8.8; in data set [2] it was 1.

As for `O=C(NCc1ccccc1-c1ccsc1)c1nc[nH]c1C(=O)Nc1ccc(F)cc1`, the selectivity ratio in data set [1] is 1.95; in data set [2] it was 13.2. For the molecule `Cc1ccc(NC(=O)c2nccnc2C(=O)Nc2ccccc2-c2ccncc2)cc1`, the selectivity ratio in data set [1] stood at 26; in data set [2], 10. The matching figures for `Cc1ccc(NC(=O)c2nccnc2C(=O)Nc2ccc(C)cc2-c2cccnc2)cc1`: 4.5 and 4.1.

As for `Cc1ccc(NC(=O)c2nccnc2C(=O)Nc2ccc(F)cc2)c(-c2ccncc2)c1`, the selectivity ratio in data set [1] was 1; in data set [2], 2.6. Turning to `O=C(Nc1ccc(F)cc1)c1nccnc1C(=O)Nc1ccccc1-c1ccncc1`, the values for the selectivity ratio in data set [1] and in data set [2] were 10.4 and 15, respectively. Taken in the same sequence, the figures for `Cc1ccc(NC(=O)c2nc[nH]c2C(=O)Nc2ccccc2)c(-c2ccsc2)c1` were 1 and 13.

In the case of `O=C(NCc1ccccc1-c1ccncc1)c1nc[nH]c1C(=O)Nc1ccc(F)cc1`, the figures for the selectivity ratio in data set [1] and in data set [2] were 26 and 31, respectively. The matching figures for `O=C(NCc1ccc(-c2cccnc2)cc1)c1nc[nH]c1C(=O)Nc1ccc(F)cc1`: 2.85 and 10.

Take `Cc1ccc(NC(=O)c2nc[nH]c2C(=O)NCc2ccccc2)c(-c2ccco2)c1`: in data set [1], the selectivity ratio came out at 1. In the case of `O=C(NCc1ccc(-c2ccsc2)cc1)c1nc[nH]c1C(=O)Nc1ccc(F)cc1`, the selectivity ratio came out at 0.6 in data set [1] and 4.13 in data set [2]. On to `Cc1ccc(NC(=O)c2nccnc2C(=O)NCc2ccc(-c3cccnc3)cc2)cc1`, for which the figures for the selectivity ratio in data set [1] and in data set [2] were 17.2 and 1.7, respectively. Taken in the same sequence, the figures for `Cc1ccc(NC(=O)c2nc[nH]c2C(=O)Nc2ccc(F)cc2)c(-c2cc(C)n[nH]2)c1` were 48 and 34.5. The matching figures for `Cc1ccc(NC(=O)c2nccnc2C(=O)NCc2ccc(-c3ccncc3)cc2)cc1`: 4.5 and 3.

Take `Cc1ccc(NC(=O)c2nc[nH]c2C(=O)NCCc2ccc(F)cc2)c(-c2ccco2)c1`: the selectivity ratio in data set [1] is 30.9. For `O=C(Nc1ccc(F)cc1)c1nccnc1C(=O)Nc1ccccc1-c1cccnc1`, the selectivity ratio in data set [1] was 5.2; in data set [2], 2.5. The matching figures for `O=C(NCc1ccc(-c2ccncc2)cc1)c1nc[nH]c1C(=O)Nc1ccc(F)cc1`: 1 and 1. The matching figures for `Cc1ccc(NC(=O)c2nccnc2C(=O)Nc2ccc(C)cc2-c2ccncc2)cc1`: 10 and 3.8.

With `Cc1ccc(NC(=O)c2[nH]cnc2C(=O)Nc2ccc(C)cc2-c2ccco2)cc1`, the selectivity ratio in data set [1] came to 36.2. In the case of `O=C(NCc1ccccc1-c1ccncc1)c1nccnc1C(=O)Nc1ccc(F)cc1`, in data set [1], the selectivity ratio is 2.9. On to `Cc1cc(-c2ccccc2NC(=O)c2nc[nH]c2C(=O)Nc2ccc(F)cc2)[nH]n1`, for which the selectivity ratio in data set [1] was 3.6; in data set [2] it was 67. With `Cc1ccc(NC(=O)c2nccnc2C(=O)Nc2ccc(F)cc2)c(-c2cccnc2)c1`, the selectivity ratio in data set [1] was above 125; in data set [2], 9.

Take `Cc1cnc(NC(=O)c2[nH]cnc2C(=O)Nc2ccccc2)c(-c2ccc(C)s2)c1`: the selectivity ratio in data set [1] was 0.22; in data set [2], 0.97. Taken in the same sequence, the figures for `O=C(NCc1ccc(-c2ccncc2)cc1)c1nccnc1C(=O)Nc1ccc(F)cc1` were above 125 and 16. `Cc1ccc(NC(=O)c2nc[nH]c2C(=O)Nc2ccc(F)cc2)c(-c2ccco2)c1`: the selectivity ratio in data set [1] turned out to be 1. As for `Cc1ccc(NC(=O)c2nccnc2C(=O)NCc2ccccc2-c2ccncc2)cc1`, the figures for the selectivity ratio in data set [1] and in data set [2] were 2.04 and 1.7, respectively. Taken in the same sequence, the figures for `Cc1ccc(NC(=O)c2nc[nH]c2C(=O)Nc2ccc(F)cc2)c(-c2ccsc2)c1` were 2.4 and 1. As to `O=C(NCc1ccc(-c2cccnc2)cc1)c1nccnc1C(=O)Nc1ccc(F)cc1`, the figures for the selectivity ratio in data set [1] and in data set [2] were 38.5 and 13, respectively. Consider `Cc1ccc(NC(=O)c2[nH]cnc2C(=O)Nc2ccc(C)cc2-c2ccsc2)cc1`, for which the selectivity ratio in data set [1] was determined as 24.5; in data set [2], 1.

The values are drawn from ChEMBL document CHEMBL3352473, “Synthesis and evaluation of imidazole-4,5- and pyrazine-2,3-dicarboxamides targeting dengue and yellow fever virus” (Eur J Med Chem, 2014).
